In patent publication US7790171B1, “Antiviral peptides obtained from the tryptophan-rich hydrophobic cluster of the HIV-1 reverse transcriptase” (priority 2000, dated 2010):
Where no end group is shown, it is not given here.

How the values were obtained:
[1] = tested on: CEM cells; experiment: Toxicity in CEM cells; assay type: cell-based, human
[2] = tested on: HIV-2 ROD; experiment: RT activity assay of viral production in HIV-2 ROD-infected CEM cells; assay type: cell-based
Description: (§1) FIG. 1: Effect of different concentrations of MPG/p7 (SEQ ID NO:1) on HIV-1 and HIV-2 in CEM cell cultures. CEM cells exposed to 100 μl of viral suspensions containing 1000×50% tissue culture infective dose (TCID50)/m1 of HIV-1 BRU (left panels) or HIV-2 ROD (right panels). a, HIV-infected cells were cultured in medium alone (white diamonds) or medium supplemented with MPG/p7 at 10^−7 M (black circles), 10^−8 M, (black up triangles), 10^−9 M (black diamonds), and 10^−10 M (black squares). b, As controls, HIV-infected cells were treated with either azidothymidine (AZT: 10^−5 M) (white squares) or peptide MPG/p237 (SEQ ID NO:5) at 10^−6 M (black down triangles). Viral production was monitored by measuring RT activity twice a week post infection. Culture supernatants from virus-free CEM were tested as a control (white circles, FIG. 1b).
(§2) RI activity assay. CEM cells were incubated for 30 mm at 4° C. with 100 μl of stock HIV preparation corresponding to 1000×50% tissue culture infective dose (TCID50)/ml, then cells were washed five times and cultured at 5×10^5 cell/ml in 24-well microplates in the presence or absence of MPG/p7 (at 10^−8 and 10^−7 M) or AZT (AZT was purchased from Boehringer Mannheim, Germany) additive. Viral production was monitored twice a week by measuring reverse transcriptase activity in 1 ml of cell-free supernatant as previously described (39).

[3] = tested on: HIV-1 BRU; details: cited from earlier work
[4] = tested on: HIV-1 BRU, RF, SF2, NDK, ELI (clades B and D); experiment: β-gal activity assay in MAGIC-5 cells, HIV-1 isolates; assay type: cell-based; details: MAGIC5 cells, β-gal activity day 3, X4 and R5/X4 strains
Description: (§3) FIG. 2: Effect of MPG/p7 (SEQ ID NO:1) on replication of different subtypes of HIV-1 and HIV-2 studied using MAGIC5 cells. MAGIC-5 cells were incubated with 50 μl of stock HIV preparation corresponding to 1000×TCID50/ml. a, HIV-1 BRU; b, HIV-1 RF; c, HIV-1 SF2 (FIG. 2.A); d, HIV-1 NDK; e, HIV-1 ELI; f, HIV-2 ROD; g, HIV-2 EHO (FIG. 2.B) in medium alone (lane 2), medium supplemented with AZT (10^−5 M) (lane 3), MPG/p7 at 10^−7 and 10^−8 M (lane 4 and 5 respectively), or MPG/p237 (SEQ ID NO:5) at 10^−6 M (lane 6) additive. After 3 days in culture, 13-gal activity was evaluated in cell lysates by measuring absorbance at 410 nm. β-gal activity in uninfected MAGIC5 cells was measured as control (lane 1). […] The calculated values represent means of duplicate. […]
(§4) β-gal activity assay. […] After 3 days in culture, cells were lysed and β-gal activity was determined by incubating 200 μl of total cellular extracts for 1 hat 37° C. in 1.5 ml buffer containing 80 mM NA2HPO4, 10 mM MgCl2, 1 mM 2 ME and 6 mM o-nitrophenyl β-D-galactopyranoside (ONPG). β-gal activity was evaluated by measuring absorbance at 410 nm.
(§5) The efficiency of MPG/p7 monitored using the previously described MAGIC5 transfectant cells that express surface CD4, CXCR4 and CCR5 receptors and contain a reporter gene under control of an HIV-1 promoter that can be induced upon infection of the cells. […]

[5] = tested on: HIV-1 RTMC; experiment: β-gal activity assay in MAGIC-5 cells, HIV-1 RTMC; assay type: cell-based
Description: (§6) FIG. 3: Effect of MPG/p7 (SEQ ID NO:1) on replication of reference escape variant viruses. MAGIC-5 cells were incubated with 50 μl of stock HIV preparation corresponding to 1000×TCID50/ml of a, HIV-1 BRU; b, HIV-1 RTMF; c, HIV-1 RTMC; d, HIV-1 74V (FIG. 3.A); e, HIV-1 N119; f, HIV-1 RTMDR1 (FIG. 3.B), in medium alone (lane 2) or medium supplemented with AZT at 10^−5 M, 10^−6 M, 10^−7 M, 10^−8 M, 10^−9 M, and 10^−10 M (lanes 3 to 8 respectively), MPG/p7 at 10^−8 and 10^−7M (lanes 9 and 10), or MPG/p237 at 10^−6M (lane 11) additive. β-gal activity was evaluated on day 3 after virus exposure. β-gal activity in uninfected MAGIC5 cells was measured as control (lane 1). All results have been normalized (see legend of FIG. 2). The calculated values represent means of duplicate. Each figure is representative of at least three independent experiments.
as §4

[6] = tested on: HIV-2 ROD, EHO (clades A and B); experiment: β-gal activity assay in MAGIC-5 cells, HIV-2 isolates; assay type: cell-based; details: MAGIC5 cells, β-gal activity day 3
Description: as §3, §4, §5

[7] = tested on: HIV-1 RTMF, HIV-1 RTMC, HIV-1 74V, HIV-1 N119 and HIV-1 RTMDR1; experiment: β-gal activity assay in MAGIC-5 cells, anti-RT drug resistant HIV-1 strains; assay type: cell-based; details: β-gal activity day 3
Description: as §6
as §4, with “nm. […]” for “nm.”

[8] = tested on: HIV-1 RTMDR1; experiment: β-gal activity assay in MAGIC-5 cells, HIV-1 RTMDR1; assay type: cell-based; details: FIG. 3f
Description: as §6, §4

[9] = tested on: HIV-1 BRU; experiment: RT activity assay of viral production in HIV-1 BRU-infected CEM cells; assay type: cell-based
Description: as §1, §2

[10] = molecular target: HIV-1 RT dimerization (p66/p51) (Human immunodeficiency virus type 1 group M subtype B, UniProt P03366); details: cited from earlier work

KETWETWWTE [p7, KETWETWWTE]
concentrations without any toxicity in CEM cells [1]: below 10^−5 M

MPG/p7: non-covalent complex of peptide p7 (SEQ ID NO:1) with carrier peptide MPG (SEQ ID NO:2) (chain 1 KETWETWWTE; chain 2 GALFLGFLGAAGSTMGAWSQPKSKRKV; also: non-covalent complex of p7 with carrier MPG)
delay in HIV-2 replication ([2]; 10^−9 M of MPG/p7, CEM cells): 3 days
concentrations that strongly delay HIV-2ROD propagation ([2]; RT activity in supernatant, CEM cells): above 10^−7 M
inhibition of HIV-1BRU replication in CEM cell culture (previously shown) [3]: inhibit
concentration at which all HIV-1 strains tested were susceptible [4]: 10^−8 M
concentration required to inhibit HIV-1 RTMC relative to other viruses ([5]; FIG. 3c): higher than that required to block the other viruses
concentration required to completely inhibit HIV-1 RTMC ([5]; data not shown): 10^−6 M
concentration at which all HIV-2 strains tested were susceptible [6]: 10^−8 M
sensitivity of escape mutant viruses to treatment [7]: sensitive
concentration required to inhibit HIV-1 RTMDR1 relative to other viruses [8]: higher than that required to block the other viruses
effect on HIV-1BRU replication at 10^−9 M ([9]; 10^−9 M, RT activity at the end of culture (day 17), CEM cells): very slow virus propagation
delay in HIV-1 replication ([9]; 10^−10 M of MPG/p7, CEM cells): 3 days
concentration that abolishes the production of viral particles ([9]; HIV-1 BRU-infected cultured CEM cells): 10^−8 M
concentrations that totally inhibit HIV-1BRU replication ([9]; RT activity in cell free supernatant, 17 days of incubation, CEM cells): above 10^−8 M
inhibition of HIV-1BRU RT dimerization in vitro (previously shown) [10]: inhibit
